Target: T1, GST-P1 (Homo sapiens, UniProt P09211)
T1 construct: gene GSTP1; 6xHis-tagged GST-P1 recombinant protein
Assay: GSH-CDNB conjugation assay with purified recombinant enzyme; also PGV-1 bead pulldown competed by glutathione
Type: biochemical

T1 sequence (P09211 2-210): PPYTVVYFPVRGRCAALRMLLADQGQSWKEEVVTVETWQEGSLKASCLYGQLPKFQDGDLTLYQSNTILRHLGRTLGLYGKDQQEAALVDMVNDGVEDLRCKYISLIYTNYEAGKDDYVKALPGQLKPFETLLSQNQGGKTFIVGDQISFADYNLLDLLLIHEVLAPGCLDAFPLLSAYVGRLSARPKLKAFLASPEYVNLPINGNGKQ

IC50: 97.6 ± 3.8 µM
SMILES: Cc1cc(/C=C2\CC/C(=C\c3cc(C)c(O)c(C)c3)C2=O)cc(C)c1O [PGV-1]

From PMC6795878, “Pentagamavunon-1 (PGV-1) inhibits ROS metabolic enzymes and suppresses tumor cell growth by inducing M phase (prometaphase) arrest and cell senescence” (Scientific Reports, 2019)
